Measurements as given in ChEMBL document CHEMBL4373748, “Reinvestigation of Mycothiazole Reveals the Penta-2,4-dien-1-ol Residue Imparts Picomolar Potency and 8S Configuration” (ACS Med Chem Lett, 2020).

What was measured:
HCT-116 = assay: Cytotoxicity against human HCT116 cells assessed as reduction in cell viability incubated for 3 days by tryphan blue dye based assay; assay type: functional; conditions: HCT-116, 72 h
PANC-1 = assay: Cytotoxicity against human PANC1 cells assessed as reduction in cell viability incubated for 3 days by tryphan blue dye based assay; assay type: functional; conditions: PANC-1, 72 h
[1] = Stability of compound in benzene-d6 by 1H-NMR analysis; assay type: physicochemical
[2] = (§1) Drug degradation assessed as methyl N-[(E)-8-[4-[(2E)-hexa-2,5-dienyl]-1,3-thiazol-2-yl]-3,7-dihydroxy-3-(hydroxymethyl)-8-methylnon-4-enyl]carbamate metabolite formation by measuring maximum absorbance units measured after preserving compound in amber vial containing methanol followed by drying using N2 stream for 24 hrs at room temperature by ultraviolet-photoiodide array detection method; assay type: physicochemical
[3] = as §1, with “relative abundance” for “maximum absorbance units”, “LC-MS-TIC analysis” for “ultraviolet-photoiodide array detection method”; assay type: physicochemical
[4] = Stability of compound assessed as shelf life measured after preserving compound in amber vial containing 95% CH3CN and 5% H2O followed by drying using N2 stream and later punged-with argon in dark desiccator under vacuum for 24 hrs; assay type: physicochemical
[5] = (§2) Drug degradation assessed as methyl N-[(E)-8-[4-[(2E)-hexa-2,5-dienyl]-1,3-thiazol-2-yl]-3,7-dihydroxy-3-(hydroxymethyl)-8-methylnon-4-enyl]carbamate metabolite formation by measuring relative abundance measured after preserving compound in amber vial containing 95% CH3CN and 5% H2O followed by drying using N2 stream and later punged-with argon followed by exposure to 4 degC for 24 hrs by LC-MS-TIC analysis; assay type: physicochemical
HepG2 = assay: Cytotoxicity against human HepG2 cells assessed as reduction in cell viability incubated for 3 days by tryphan blue dye based assay; assay type: functional; conditions: HepG2, 72 h
[6] = as §2, with “stream” for “stream and later punged-with argon”, “direct light” for “4 degC”; assay type: physicochemical
[7] = as §1, with “relative abundance” for “maximum absorbance units”, “air” for “N2”, “LC-MS-TIC analysis” for “ultraviolet-photoiodide array detection method”; assay type: physicochemical
[8] = as §2, with “maximum absorbance units” for “relative abundance”, “ultraviolet-photoiodide array detection method” for “LC-MS-TIC analysis”; assay type: physicochemical
[9] = as §1, with “air” for “N2”; assay type: physicochemical
[10] = as §1, with “95% CH3CN and 5% H2O” for “methanol”, “stream and later punged-with argon in dark desiccator under vacuum” for “stream”, “hrs” for “hrs at room temperature”; assay type: physicochemical
[11] = as §2, with “by” for “by measuring”, “in dark desiccator under vacuum” for “followed by exposure to 4 degC”; assay type: physicochemical
[12] = Stability of compound assessed as shelf life measured after preserving compound in amber vial containing 95% CH3CN and 5% H2O followed by drying using N2 stream and later punged-with argon followed by exposure to 4 degC for 24 hrs; assay type: physicochemical
[13] = as §1, with “95% CH3CN and 5% H2O” for “methanol”, “stream followed by exposure to direct light” for “stream”, “hrs” for “hrs at room temperature”; assay type: physicochemical

Work on `C=CC/C=C\Cc1csc(C(C)(C)[C@H](O)C/C=C/C(O)(CO)CCNC(=O)OC)n1` (stereo partly specified) yielded an IC50 (HCT-116) of over 1000 nM.

In the case of `C=CC/C=C/Cc1csc(C(C)(C)[C@@H](C/C=C\C(=C)CCNC(=O)OC)OC(C)=O)n1`, the IC50 (PANC-1) is reported as 1.3 nM and the Stability [1] is reported as “>= 6 months”.

Work on `C=CC/C=C\Cc1csc(C(C)(C)[C@H](O)CC2C=C(CCNC(=O)OC)CON2c2ccccc2)n1` (stereo partly specified) yielded an IC50 (PANC-1) of over 1000 nM.

`C=CC/C=C/Cc1csc(C(C)(C)[C@H](O)C/C=C\C(=C)CCNC(=O)OC)n1` gave an IC50 (PANC-1) of 0.16 nM, a Drug degradation [2] of 500000 a.u and an IC50 (HCT-116) of 0.35 nM. It also gave a Drug degradation [3] of 45%, a Stability [4] of 3 to 6 weeks and a Drug degradation [5] of 20%. For the same molecule, the IC50 (HepG2) was 0.27 nM, the Drug degradation [6] was 60% and the Drug degradation [7] was 45%. The Drug degradation [8] was 500000 a.u, the Drug degradation [9] was 500000 a.u and the Drug degradation [10] was 500000 a.u. The Drug degradation [11] was 20%, the Stability [12] was 3 to 6 weeks and the Drug degradation [13] was 280000 a.u.

Molecule `C=CC/C=C\Cc1csc(C(C)(C)C(=O)C/C=C\C(=C)CCNC(=O)OC)n1` has an IC50 (PANC-1) of 2000 nM.

`C=CC/C=C\Cc1csc(C(C)(C)C(O)CC2C=C(CCNC(=O)OC)CN(c3ccccc3)O2)n1` (single isomer, unassigned) showed an IC50 (PANC-1) of over 1000 nM.
